Measured values: patent EP4609859A1, “INHIBITORS OF THE GENE SMPD1 FOR THE TREATMENT OF SPINAL MUSCULAR ATROPHY” (Universidad Pablo de Olavide, priority 2024, dated 2025)

Experiments:
[1] = test system: SMN protein; experiment: Western blot of SMN in human SMA patient fibroblasts; format: cell-based; conditions: SMAII and SMAI fibroblasts, 5µM, 10µM, or 25µM, 24 h
Experimental: Fibroblasts were maintained in Eagle's Minimum Essential Medium (MEM) (Sigma) supplemented with 15% (v/v) non-inactivated fetal bovine serum (FBS) (Gibco), 0.5M of L-Glutamine (Gibco), 1% (v/v) non-essential amino acids, and 20µg/ml of Penicillin-Streptomycin (Gibco). For western blot analysis, cells were plated at 3,000-4,000 cells/cm2 in 35mm dishes and cultured in supplemented MEM for 24 h. For immunofluorescence experiments, 3,000 cells/well were plated in collagen-coated 1cm2 glass coverslips placed into four-well dishes and fixed in 4% paraformaldehyde (Sigma) in PBS.
Western blots were performed as previously described (Gou-Fabregas et al., 2009). Cell lysates were resolved in sodium dodecyl-sulfate polyacrylamide (SDS-PAGE) gels and transferred onto polyvinylidene difluoride (PVDF) Immobilon-P transfer membranes (Millipore, Burlington, MA, USA) using an Amersham Biosciences semidry Trans-Blot (Buckinghamshire, UK). Membranes were blotted with: anti-SMN (1: 5,000, Cat. No. 610646, BD Transduction Laboratories, Franklin Lakes, NJ, USA) and anti-SMPD1 (1: 300, Cat. No. 14609-1-AP, ProteinTech, Manchester, UK). To control the specific protein content per lane, membranes were reproved with anti-α-tubulin antibody (1: 50,000, Cat. No. T5168, Sigma). […]

[2] = target: T1, SMPD1 (Homo sapiens, UniProt P17405); experiment: Immunofluorescence (CTCF) of SMPD1 in differentiated human SMA MNs; format: cell-based; conditions: SMAI MNs, 10µM, 24 h; untreated 126.7±5.74; p<0.0001
T1 construct: host or cells: human SMA type 2 patient fibroblasts (SMAII)
T1 sequence (P17405 47-631): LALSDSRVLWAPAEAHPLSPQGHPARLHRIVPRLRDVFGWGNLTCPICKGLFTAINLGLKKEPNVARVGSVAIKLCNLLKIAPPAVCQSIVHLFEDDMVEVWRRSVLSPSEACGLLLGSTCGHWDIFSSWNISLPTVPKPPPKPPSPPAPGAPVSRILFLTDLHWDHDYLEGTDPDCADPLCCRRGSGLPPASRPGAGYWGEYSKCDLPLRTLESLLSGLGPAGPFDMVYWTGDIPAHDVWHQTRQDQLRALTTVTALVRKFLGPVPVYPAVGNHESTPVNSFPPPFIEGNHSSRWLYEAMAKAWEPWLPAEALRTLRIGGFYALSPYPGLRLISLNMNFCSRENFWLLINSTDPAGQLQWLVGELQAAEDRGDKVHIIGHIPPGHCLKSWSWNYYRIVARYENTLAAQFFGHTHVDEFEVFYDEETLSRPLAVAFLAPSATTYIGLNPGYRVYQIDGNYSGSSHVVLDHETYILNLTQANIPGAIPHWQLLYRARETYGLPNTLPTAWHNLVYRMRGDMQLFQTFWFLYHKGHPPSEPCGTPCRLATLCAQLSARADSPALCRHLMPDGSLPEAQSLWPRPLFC
Source text: Three human iPSCs lines were used in the present work. The GM23411*B (Coriell Institute) iPSC cell line obtained from a healthy […] individual was used as control. The GM23240*B (Coriell Institute) iPSCs obtained from a fibroblast cell line of a […] SMA type 2 patient (2 copies SMN2; deletion exon7-8 in SMN1) was used as SMAII condition. SMAII patient was previously classified as SMA type 1, but several data supported re-classification to SMA type 2. The CS84iSMA-nxx (Cedar Sinai, Los Angeles, USA) iPSCs obtained from a lymphoblast cell line of a […] SMA type 1 patient (2 copies SMN2; deletion exon7-8 in SMN1) was used as SMAI condition. […]
(§1) Cultured cells were fixed with 4% paraformaldehyde (Sigma) for 10 min and cold methanol (Sigma) for 30 min more. […] Quantification of fluorescence intensity was performed blinded, using the NIH ImageJ software (Schindelin et al., 2012). Using phase contrast images, the cell perimeter was manually delimited and transferred to the corresponding fluorescence images. The Integrated Density (IntDen) was measured in the selected area of the cell. Three non-fluorescent surrounding regions were measured to set up the background readings. The fluorescence intensity was calculated using the following formula: Corrected Total Cell Fluorescence (CTCF) = IntDen (sum of the values of the pixels in the selection) - (area of the cell x mean fluorescence of the background).

[3] = test system: SMN-1; experiment: SMN-1 level by head fluorescence in C. elegans strain mCherry::smn-1 (PHX2635) after drug treatment; format: in vivo; conditions: for level of SMN-1, repeated experiments on different days: Fig. 11, vs non-treated animals
Source text: C. elegans strains were cultivated under standard conditions (Stiernagle, 2006). The strains used are as follows: PHX2635: smn-1(syb2635); BN1158: bqSi1152[pBN521(unc-119(+) eft-3p::Frt::mCh::his-58::Frt::UPRT)]II; bqSi577[pBN306(unc-119(+) myo-2p::GFP)] IV. unc-119(ed9)III . The Escherichia coli strains used were: OP50 and HT115.
The strain PHX2635: smn-1(syb2635) was generated by CRISPR technology, we introduced the coding sequence of the fluorescent protein m-Cherry upstream of the TAA stop codon of the C. elegans SMN1 homologous gene, smn-1, as indicated in the sequence: [formula]
RNAi feeding was performed as described (Kamath and Ahringer, 2003). RNAi clones belong to the Aringher gene library were used: JA:C41G7.1 (smn-1), JA:T18D3.7 (tsct-1), JA:WO3G1.7 (asm-3), JA:C07A12.7 (C07A12.7), JA:C10E2.3 (hda-4), JA:K09A9.4 (usp-33), JA:R01B10.1 (cpi-2), JA:K08B4.6 (cpi-1), JA:K06A4.3 (gsnl-1), JA:F23H11.4 (F23H11.4), JA:T18H9.7 (pacs-1), JA:C41G7.1 (smn-1) and MV_SV: mv_ZK455.4 (asm-2) from Marc Vidal's gene library (Kim et al., 2005). […] For the drug assay, NGM plates were prepared at the indicated concentrations and the respective vehicle was used as a control, then proceeded as in the RNAi assay.
L4 worms were mounted in a coverslip with a 2% agarose pad. C. elegans confocal images were acquired using a Nikon A1R microscope equipped with a 60x Plan Apo lens of Numerical Aperture 1.4. Twelve pictures were taken for each worm to be integrated in a Z image. […] Laser intensity, gain and pixel scan speed remained constant along all sets of experiments.
For image analysis, we used FIJI software. The experimentalist drew manually a ROI containing between the second pharynx bulb and the mouth of the nematode. Within this area, mCherry expression was detected using an intensity threshold that remained constant along all images. This minimum intensity level was defined by the experimenter. Within the thresholded volume, we measured the integrated density using the plugin 3D object counter (Bolte and Cordelières, 2006). […]

[4] = target: T1, SMPD1; experiment: Immunofluorescence (CTCF) of SMPD1 in human SMA fibroblasts; format: cell-based; conditions: SMAII fibroblasts, 20µM, 24 h; untreated 105.8±5.64; p<0.0001
Experimental: Two human fibroblasts cell lines from SMA patients (GM03813, SMA type 2 patient, SMAII; and GM09677, SMA type 1 patient, SMAI) and one healthy control (GM03814, Control) were obtained and cultured following the manufacturer instructions. Fibroblasts were maintained in Eagle's Minimum Essential Medium (MEM) (Sigma) supplemented with 15% (v/v) non-inactivated fetal bovine serum (FBS) (Gibco), […] of L-Glutamine (Gibco), 1% (v/v) non-essential amino acids, and 20µg/ml of Penicillin-Streptomycin (Gibco). For western blot analysis, cells were plated at 3,000-4,000 cells/cm2 in 35mm dishes and cultured in supplemented MEM for 24 h. […]
as §1

[5] = test system: SMN protein; experiment: Western blot of SMN in iPSC-differentiated human SMA MNs; format: cell-based; conditions: remaining doses of 5µM, 10µM, 20µM in SMAI and SMAII MNs, 24 h
Source text: Three human iPSCs lines were used in the present work. The GM23411*B (Coriell Institute) iPSC cell line obtained from a healthy […] individual was used as control. The GM23240*B (Coriell Institute) iPSCs obtained from a fibroblast cell line of a […] SMA type 2 patient (2 copies SMN2; deletion exon7-8 in SMN1) was used as SMAII condition. SMAII patient was previously classified as SMA type 1, but several data supported re-classification to SMA type 2. The CS84iSMA-nxx (Cedar Sinai, Los Angeles, USA) iPSCs obtained from a lymphoblast cell line of a […] SMA type 1 patient (2 copies SMN2; deletion exon7-8 in SMN1) was used as SMAI condition.
Human iPSCs were differentiated to MNs as previously described (de la Fuente et al., 2020; Du et al., 2015). Cell lines were cultured and expanded on Geltrex (Sigma)-coated plates in Essential 8 medium (Gibco). Neuroepithelial cells and MN progenitors were generated following the established protocol. To induce MN differentiation, MN progenitors were detached with Accutase (Gibco) and cultured in suspension in MN induction medium (DMEM/F12: NBM plus 1:1 supplemented with B27, L-glutamine [all from Gibco], 0.1mM ascorbic acid [Sigma], 3µM CHIR99021; 2µM SB431512, 2µM DMH1 [all from Cayman, Ann Harbor, MI, USA], 0.5µM retinoic acid [Sigma], and 0.1µM purmorphamine [Cayman]). […]

[6] = test system: nematode development; experiment: Visible effect of drug treatment on nematode development; format: in vivo, C. elegans; conditions: at the concentrations tested in the SMN-1 assay
Experimental: RNAi feeding was performed as described (Kamath and Ahringer, 2003). RNAi clones belong to the Aringher gene library were used: JA:C41G7.1 (smn-1), JA:T18D3.7 (tsct-1), JA:WO3G1.7 (asm-3), JA:C07A12.7 (C07A12.7), JA:C10E2.3 (hda-4), JA:K09A9.4 (usp-33), JA:R01B10.1 (cpi-2), JA:K08B4.6 (cpi-1), JA:K06A4.3 (gsnl-1), JA:F23H11.4 (F23H11.4), JA:T18H9.7 (pacs-1), JA:C41G7.1 (smn-1) and MV_SV: mv_ZK455.4 (asm-2) from Marc Vidal's gene library (Kim et al., 2005). For smn-1 expression assays, gravid hermaphrodites were transferred to empty plasmid pL4440 or RNAi plates, incubated at 20°C for 48 hours and the next generation was analyzed at the L4 stage. For the drug assay, NGM plates were prepared at the indicated concentrations and the respective vehicle was used as a control, then proceeded as in the RNAi assay.

Compound | SMN protein level [1] | SMPD1 relative fluorescence in cell soma (CTCF) [2] | SMN-1 level after treatment exclusively during the adult stage ([3]; 100 µM, 48 hours, started at adulthood, vs untreated) | level of SMN-1, repeated experiments on different days ([3]; 100 µM) | SMPD1 relative fluorescence in cell soma (CTCF) [4] | SMN protein compared to untreated control [5] | visible effect on nematode development [6] | level of SMN-1, repeated experiments on different days ([3]; 500 µM)
CN(C)CCCN1c2ccccc2CCc2ccc(Cl)cc21 [clomipramine] | did not increase SMN protein level | 91.62±3.64 | significant increase | statistically significant increase | 56.59±4.03 | No significant differences | did not show a visible negative effect | 
CCOC(=O)C1=C(COCCN)NC(C)=C(C(=O)OC)C1c1ccccc1Cl (stereo not shown) [amlodipine] |  |  |  |  |  |  | delay in nematode development | 
CNCCCN1c2ccccc2CCc2ccccc21 [desipramine] |  |  |  |  |  |  | delay in nematode development | statistically significant increase
